Test results reported in US5416222A, “3-pyrrolidine methanamines wherein the alpha-carbon is substituted by 1 or 2 lower alkyl groups which are intermediates for pyridone-carboxylic acid derivatives” (Daiichi Seiyaku Co., Ltd., priority 1985, dated 1995).
Converted amounts (≈) assume the structure as drawn. Read-outs that look alike come from different tables or passages of the source.

What was measured:
[1] = system: Gram-negative microorganisms; test: antimicrobial activity against Gram-negative microorganisms (in words); type: cell-based
Experimental: (§1) The antimicrobial activities of the compounds of the present invention were determined according to a standard process designated by the Japan Society of Chemotherapy and the minimum growth inhibitory concentrations (MIC) (μg/ml) the compounds were determined.

[2] = system: Gram-positive microorganisms; test: antimicrobial activity against Gram-positive microorganisms (in words); type: cell-based
Experimental: as §1

Str. pyogenes, G-36 = test: antimicrobial activity, MIC, standard process of Japan Society of Chemotherapy; type: cell-based; details: for minimum growth inhibitory concentration (MIC): Str. pyogenes; for MIC: Streptococcus pyogenes, G36, Str. pyogenes, read-out: minimum growth inhibitory concentration (MIC)
Experimental: as §1

S. epidermidis, 56500 = test: as above; type: cell-based; details: for minimum growth inhibitory concentration (MIC): S. epidermidis
Experimental: as §1

Pr. mirabilis, IF03849 = test: as above; type: cell-based; details: for minimum growth inhibitory concentration (MIC): Pr. mirabilis; for MIC: Proteus mirabilis, IF03849, Pr. mirabilis, read-out: minimum growth inhibitory concentration (MIC)
Experimental: as §1

Ps. aeruginosa, 2128 = test: as above; type: cell-based; details: for minimum growth inhibitory concentration (MIC): Ps. aeruginosa; for MIC: Pseudomonas aeruginosa, 2128, Ps. aeruginosa, read-out: minimum growth inhibitory concentration (MIC)
Experimental: as §1

Ser. marcescens, 13001 = test: as above; type: cell-based; details: for minimum growth inhibitory concentration (MIC): Ser. marcescens; for MIC: Serratia marcescens, 13001, Ser. marcescens, read-out: minimum growth inhibitory concentration (MIC)
Experimental: as §1

Pr. vulgaris, 3167 = test: as above; type: cell-based; details: for minimum growth inhibitory concentration (MIC): Pr. vulgaris; for MIC: Proteus vulgaris, 3167, Pr. vulgaris, read-out: minimum growth inhibitory concentration (MIC)
Experimental: as §1

[3] = system: Str. faecalis, ATCC 19433; test: as above; type: cell-based; details: for minimum growth inhibitory concentration (MIC): Str. faecalis; for MIC: Enterococcus faecalis, ATCC19433, Str. faecalis, read-out: minimum growth inhibitory concentration (MIC)
Experimental: as §1

S. aureus, 209P = test: as above; type: cell-based; details: for MIC: Staphylococcus aureus, read-out: minimum growth inhibitory concentration (MIC)
Experimental: as §1

Ps. cepacia, IID1340 = test: as above; type: cell-based; details: for minimum growth inhibitory concentration (MIC): Ps. cepacia; for MIC: Burkholderia cepacia, IID1340, Ps. cepacia, read-out: minimum growth inhibitory concentration (MIC)
Experimental: as §1

E. coli, NIHJ = test: as above; type: cell-based; details: for MIC: Escherichia coli, read-out: minimum growth inhibitory concentration (MIC)
Experimental: as §1

Sh. flexneri, 2a5503 = test: as above; type: cell-based; details: for MIC: Shigella flexneri, read-out: minimum growth inhibitory concentration (MIC)
Experimental: as §1

Ps. aeruginosa, 2063 = test: as above; type: cell-based; details: for minimum growth inhibitory concentration (MIC): Ps. aeruginosa; for MIC: Pseudomonas aeruginosa, 2063, Ps. aeruginosa, read-out: minimum growth inhibitory concentration (MIC)
Experimental: as §1

Ps. maltophilia, IID1275 = test: as above; type: cell-based; details: for minimum growth inhibitory concentration (MIC): Ps. maltophilia; for MIC: Stenotrophomonas maltophilia, IID1275, Ps. maltophilia, read-out: minimum growth inhibitory concentration (MIC)
Experimental: as §1

acute toxicity to mouse = type: in vivo; details: mouse, in vivo, iv; 200 mg/kg
Experimental: (§2) The water-solubility and acute toxicity of the compounds of the present invention and the comparative compounds, were measured. The results obtained are shown hereunder. The water-solubility was measured by the following method.
(§3) *200 mg/kg; i.v, (deaths/total number) As is obvious from the above

[4] = in words, prior art discussion; cited from earlier work
physchem = type: physicochemical
Experimental: as §2
(i) Preparation of standard solution
About 400 μg of the sample to be measured was accurately weighed (the weight was defined as W μg), and 0.1N NaOH solution was added thereto to bring the whole volume to 50 ml. The UV absorbance of a given amount of the solution was measured and the measured absorbance was defined as A1.
(ii) Preparation of sample to be measured
Distilled water was added to the sample to be measured (fine powder) in such amount that the sample was not completely dissolved but suspended, and then the suspension was vigorously agitated at room temperature (between 23° and 26° C.) for 30 minutes. Insoluble matter of the sample was removed therefrom by filtration, after which 3 ml sample of the filtrate (satulated aqueous solution of the sample) was taken. 3 ml of 0.2N NaOH solution was added to the filtrate sample to bring the total volume to 6 ml (i.e. the filtrate was diluted to 50% concentration.) To 1 ml of the resulting solution, 0.1N NaOH solution was further added to bring the total volume to 25 ml […]. In this connection, degree of dilution was occasionally changed, depending on degree of UV absorbance. The UV absorbance of the given amount of the solution was measured and the resulting absorbance was defined to as A2. Where the number of dilution is N, water-solubility (s) is obtained from the following equation: [formula]

[5] = system: Gram-positive microorganisms; details: in words, prior art discussion; cited from earlier work
[6] = system: Gram-negative microorganisms; details: in words, prior art discussion; cited from earlier work
mouse = test: acute toxicity to mouse; type: in vivo; details: 200 mg/kg; i.v.
Experimental: as §2, §3

[7] = absorption after oral administration to rats; type: in vivo; details: rat, 20 mg/kg
Experimental: The compounds of the present invention and the comparative compound were orally given to rats (one group: 5 rats) at a dose of 20 mg/kg to measure the oral absorption of the compounds. The concentration of the compound in the blood of the rat was measured at 15 minutes, 30 minutes, and 1, 2, 3, 4, and 6 hours after administration.
Serum half lives (T1/2) were calculated as 0.693/Kel, where Kel is the elimination rate constant determined by linear regression analysis of the natural logarithm of serum concentration-time data. The area under the serum concentration-versus time curve from zero to 6 h (AUC0-6H) was calculated by the trapezoidal method, The results obtained are as follows: […]

Structure (SMILES): CC(N)C1CCN(c2c(F)cc3c(=O)c(C(=O)O)cn(C4CC4)c3c2F)C1 (single isomer, unassigned) [Example 2, 7-[3-(1-Aminoethyl)-1-pyrrolidinyl]-1-cyclopropyl-6,8-difluoro-1,4-dihydro-4-oxoquinoline-3-carboxylic acid]
- anti-microbial activity against Gram-negative microorganisms [1]: extremely strong anti-microbial activity
- anti-microbial activity against Gram-positive microorganisms [2]: extremely strong anti-microbial activity
- minimum growth inhibitory concentration (MIC) (Str. pyogenes, G-36): ≤ 0.05 µg/mL
- minimum growth inhibitory concentration (MIC) (S. epidermidis, 56500): ≤ 0.05 µg/mL
- minimum growth inhibitory concentration (MIC) (Pr. mirabilis, IF03849): ≤ 0.05 µg/mL
- minimum growth inhibitory concentration (MIC) (Ps. aeruginosa, 2128): ≤ 0.05 µg/mL
- minimum growth inhibitory concentration (MIC) (Ser. marcescens, 13001): ≤ 0.05 µg/mL
- minimum growth inhibitory concentration (MIC) (Pr. vulgaris, 3167): ≤ 0.05 µg/mL
- minimum growth inhibitory concentration (MIC) [3]: ≤ 0.05 µg/mL
- minimum growth inhibitory concentration (MIC) (S. aureus, 209P): ≤ 0.05 µg/mL
- minimum growth inhibitory concentration (MIC) (Ps. cepacia, IID1340): 0.39 µg/mL
- minimum growth inhibitory concentration (MIC) (E. coli, NIHJ): ≤ 0.05 µg/mL
- minimum growth inhibitory concentration (MIC) (Sh. flexneri, 2a5503): ≤ 0.05 µg/mL
- minimum growth inhibitory concentration (MIC) (Ps. aeruginosa, 2063): 0.20 µg/mL
- minimum growth inhibitory concentration (MIC) (Ps. maltophilia, IID1275): 0.10 µg/mL

Structure (SMILES): CCNCC1CCN(c2c(F)cc3c(=O)c(C(=O)O)cn(CC)c3c2F)C1 (stereo not shown) [Compound C, 1-Ethyl-7-[3-(ethylamino)methyl]-1-pyrolidinyl-6,8-difluoro-1,4-dihydro-4-oxo-3-quinolinecarboxylic acid, reference compound]
- mortality (acute toxicity to mouse): 50%
- water-solubility (prior art compounds) [4]: good water-solubility
- MIC (Str. pyogenes, G-36): 0.78 µg/mL (≈ 2.06 µM)
- MIC (S. epidermidis, 56500; Staphylococcus epidermidis, 56500, S. epidermidis, read-out: minimum growth inhibitory concentration (MIC)): 0.39 µg/mL (≈ 1.03 µM)
- MIC (Pr. mirabilis, IF03849): 0.39 µg/mL (≈ 1.03 µM)
- MIC (Ps. aeruginosa, 2128): 0.39 µg/mL (≈ 1.03 µM)
- MIC (Ser. marcescens, 13001): 0.2 µg/mL (≈ 0.527 µM)
- MIC (Pr. vulgaris, 3167): 0.2 µg/mL (≈ 0.527 µM)
- MIC [3]: 0.39 µg/mL (≈ 1.03 µM)
- MIC (S. aureus, 209P): 0.1 µg/mL (≈ 0.264 µM)
- MIC (Ps. cepacia, IID1340): 1.56 µg/mL (≈ 4.11 µM)
- MIC (E. coli, NIHJ): ≤ 0.05 µg/mL
- MIC (Sh. flexneri, 2a5503): ≤ 0.05 µg/mL
- MIC (Ps. aeruginosa, 2063): 0.78 µg/mL (≈ 2.06 µM)
- MIC (Ps. maltophilia, IID1275): 0.78 µg/mL (≈ 2.06 µM)
- solubility at 0.5 h (physchem; distilled water, room temperature (23° to 26° C.), 30 minutes agitation, read-out: Water solubility): 400 µg/mL (≈ 1050 µM)
- antimicrobial activity against Gram-positive microorganisms (prior art compounds) [5]: strong antimicrobial activity
- antimicrobial activity against Gram-negative microorganisms (prior art compounds) [6]: a little weak

Structure (SMILES): CCn1cc(C(=O)O)c(=O)c2cc(F)c(N3CCC(C(C)N)C3)c(F)c21 (single isomer, unassigned) [Example 4, 7-[3-(1-Aminoethyl)-1-pyrrolidinyl]-1-ethyl-6,8-difluoro-1,4-dihydro-4-oxoquinoline-3-carboxylic acid]
- anti-microbial activity against Gram-negative microorganisms [1]: extremely strong anti-microbial activity
- anti-microbial activity against Gram-positive microorganisms [2]: extremely strong anti-microbial activity
- minimum growth inhibitory concentration (MIC) (Str. pyogenes, G-36): ≤ 0.05 µg/mL
- minimum growth inhibitory concentration (MIC) (S. epidermidis, 56500): ≤ 0.05 µg/mL
- minimum growth inhibitory concentration (MIC) (Pr. mirabilis, IF03849): 0.20 µg/mL
- minimum growth inhibitory concentration (MIC) (Ps. aeruginosa, 2128): 0.10 µg/mL
- minimum growth inhibitory concentration (MIC) (Ser. marcescens, 13001): 0.10 µg/mL
- minimum growth inhibitory concentration (MIC) (Pr. vulgaris, 3167): 0.05 µg/mL
- minimum growth inhibitory concentration (MIC) [3]: ≤ 0.05 µg/mL
- minimum growth inhibitory concentration (MIC) (S. aureus, 209P): ≤ 0.05 µg/mL
- minimum growth inhibitory concentration (MIC) (Ps. cepacia, IID1340): 0.78 µg/mL
- minimum growth inhibitory concentration (MIC) (E. coli, NIHJ): ≤ 0.05 µg/mL
- minimum growth inhibitory concentration (MIC) (Sh. flexneri, 2a5503): ≤ 0.05 µg/mL
- minimum growth inhibitory concentration (MIC) (Ps. aeruginosa, 2063): 0.20 µg/mL
- minimum growth inhibitory concentration (MIC) (Ps. maltophilia, IID1275): 0.39 µg/mL

Structure (SMILES): CNCC1CCN(c2c(F)cc3c(=O)c(C(=O)O)cn(C4CC4)c3c2F)C1 (stereo not shown) [Compound B, 1-cyclopropyl-6,8-difluoro-(3-methylaminomethyl-1-pyrolidinyl)-1,4-dihydro-4-oxoquinoline-3-carboxylic acid, reference compound]
- Acute toxicity to mouse (mouse): 2/5
- water-solubility (prior art compounds) [4]: extremely low water-solubility
- MIC (Str. pyogenes, G-36): 0.1 µg/mL (≈ 0.265 µM)
- MIC (Pr. mirabilis, IF03849): ≤ 0.05 µg/mL
- MIC (Ps. aeruginosa, 2128): 0.2 µg/mL (≈ 0.53 µM)
- MIC (Ser. marcescens, 13001): ≤ 0.05 µg/mL
- MIC (Pr. vulgaris, 3167): ≤ 0.05 µg/mL
- MIC [3]: 0.1 µg/mL (≈ 0.265 µM)
- MIC (S. aureus, 209P): ≤ 0.05 µg/mL
- MIC (Ps. cepacia, IID1340): 1.56 µg/mL (≈ 4.13 µM)
- MIC (E. coli, NIHJ): ≤ 0.05 µg/mL
- MIC (Sh. flexneri, 2a5503): 0.1 µg/mL (≈ 0.265 µM)
- MIC (Ps. aeruginosa, 2063): 0.2 µg/mL (≈ 0.53 µM)
- MIC (Ps. maltophilia, IID1275): 0.2 µg/mL (≈ 0.53 µM)
- half-life ([7]; serum half life, 0.693/Kel): 1.55 h
- Cmax ([7]; serum, 5 rats per group): 1370 ng/mL
- AUC(0-t) at 6 h ([7]; serum, zero to 6 h, trapezoidal method, read-out: AUC0-6H): 3610 ng·h/mL
- solubility at 0.5 h (physchem; water): 80 µg/mL (≈ 212 µM)
- antimicrobial activity against Gram-negative microorganisms (prior art compounds) [6]: strong antimicrobial activity
